Measurements: PMC4919555 (EBioMedicine, 2016)
Where two headings read alike, the source gives them in different places.

Key:
[1] = test system: M. tuberculosis clinical isolates; format: cell-based
[2] = test system: M. tuberculosis wild-type, katG-null and katG-overexpressing strains; format: cell-based

Structure (SMILES) | Ratio (MIC relative to H37Rv) ([1]; CI1, − 15 C/T inhA) | Ratio (MIC relative to H37Rv) ([1]; CI2, − 15 C/T inhA) | Ratio (MIC relative to H37Rv) ([1]; CI3, − 15 C/T inhA) | Response of katG-null mutant [2] | Response of katG-overexpressing strain ([2]; 3.6 μM (0.5 μg/ml), 4 days) | Killing of katG-null mutant strain [2]
NNC(=O)c1ccncc1 [INH, isoniazid] | 6 | 3 | 3 | resistant | more sensitive compared to the wild-type strain | –
Cc1csc([C@](C)(O)c2nnc(Nc3ccn(Cc4csc(C)n4)n3)s2)n1 [GSK693, (S)-1-(4-methylthiazol-2-yl)-1-(5-((1-((2-methylthiazol-4-yl)methyl)-1H-pyrazol-3-yl)amino)-1,3,4-thiadiazol-2-yl)ethanol] | – | – | – | – | – | killed equally well as the wild-type strain
